Legend:
Human TRPA1 (hTRPA1) [1] = molecular target: T1, Human TRPA1 (hTRPA1) (Homo sapiens, UniProt O75762); experiment: TRPA1 Activation Test 2: intracellular Ca2+ imaging assay 2-1 to 2-3, hTRPA1 stably expressing cell line; format: cell-based; conditions: for TRPA1 activation rates: Table 10; for Concentration dependence of TRPA1 activity (in words): additional experiments; for TRPA1 activating action (in words): hTRPA1 stably expressing cell line; for TRPA1 activation rate, With antagonist / TRPA1 activation rate, Without antagonist: Table 11
T1 construct: expressed in transfected cells
T1 sequence (O75762 whole entry): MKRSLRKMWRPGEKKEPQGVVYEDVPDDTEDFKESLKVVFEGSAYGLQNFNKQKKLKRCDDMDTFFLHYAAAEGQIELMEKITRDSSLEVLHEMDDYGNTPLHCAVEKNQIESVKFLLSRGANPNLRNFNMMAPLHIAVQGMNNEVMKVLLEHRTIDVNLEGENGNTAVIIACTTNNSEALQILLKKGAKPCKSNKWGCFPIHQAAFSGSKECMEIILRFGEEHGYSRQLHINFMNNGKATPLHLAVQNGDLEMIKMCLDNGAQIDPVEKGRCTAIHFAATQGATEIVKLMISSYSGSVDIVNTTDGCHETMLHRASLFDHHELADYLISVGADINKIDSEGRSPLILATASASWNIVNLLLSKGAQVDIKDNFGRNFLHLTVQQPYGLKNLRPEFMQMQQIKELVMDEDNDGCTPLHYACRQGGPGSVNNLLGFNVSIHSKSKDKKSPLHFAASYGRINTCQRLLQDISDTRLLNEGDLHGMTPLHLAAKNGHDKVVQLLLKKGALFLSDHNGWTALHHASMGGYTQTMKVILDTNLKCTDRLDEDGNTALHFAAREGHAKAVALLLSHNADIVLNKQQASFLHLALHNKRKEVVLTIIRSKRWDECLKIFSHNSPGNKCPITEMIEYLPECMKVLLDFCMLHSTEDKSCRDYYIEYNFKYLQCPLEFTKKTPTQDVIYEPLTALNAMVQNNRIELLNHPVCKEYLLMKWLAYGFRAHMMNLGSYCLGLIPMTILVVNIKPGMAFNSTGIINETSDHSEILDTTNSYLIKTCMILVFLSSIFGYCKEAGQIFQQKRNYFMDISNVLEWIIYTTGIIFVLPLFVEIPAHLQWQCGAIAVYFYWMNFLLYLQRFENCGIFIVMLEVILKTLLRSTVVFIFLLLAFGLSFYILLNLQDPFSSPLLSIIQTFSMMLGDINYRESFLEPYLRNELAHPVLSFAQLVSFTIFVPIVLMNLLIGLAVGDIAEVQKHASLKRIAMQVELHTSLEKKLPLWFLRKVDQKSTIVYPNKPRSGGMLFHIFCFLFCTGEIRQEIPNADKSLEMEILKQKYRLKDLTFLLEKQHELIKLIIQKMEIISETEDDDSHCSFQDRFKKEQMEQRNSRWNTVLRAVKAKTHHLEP
Description: (§1) DNAs encoding genes described in the following Table 2 were inserted into pcDNA 5/TO vector (Invitrogen) to prepare various expression vectors.
(§2) These expression vectors were transfected into T-REx™_293 cells (Invitrogen) by a conventional method using Lipofectamine LTX (Invitrogen). Then, various transfectants were cultured and cloned by a conventional method using Dulbecco's Modified Eagle Medium (DMEM, Nacalai Tesque Inc.), containing 10% fetal bovine serum (FBS, Cytiva), […] of hygromycin B, and 5 μg/mL of blasticidin S, as a drug selection medium to obtain a hTRPA1 stably expressing cell line, a hTRPV1 stably expressing cell line, and a hTRPM8 stably expressing cell line.
(§3) A hTRPA1 stably expressing cell line in which expression of hTRPA1 had been induced in advance by a conventional method was prepared in a 96 well clear bottom plate, and the hTRPA1 activating action of rhein (produced by Tokyo Chemical Industry Co., Ltd.) was tested. Specifically, after each well was washed with PBS, 50 μL of an assay buffer (Hanks' balanced salt solution containing no calcium ion or magnesium ion that contained 1 mM of CaCl2 dihydrate, 20 mM of HEPES, and 0.1% BSA) containing calcium fluorescent indicator Calbryte™ 520 AM (produced by AAT Bioquest) in a final concentration of 4 μM was added, followed by incubating at 33° C. for 45 minutes. After washing with the assay buffer, 100 μL of the assay buffer was added to each well. This plate was set to FlexStation 3 (Molecular Devices, LLC), and a fluorescence intensity (excitation wavelength 490 nm, fluorescence wavelength 525 nm) at 31° C. was measured every two seconds, and 30 seconds after the start of the measurement, 100 μL of an assay buffer containing a test sample (allyl isothiocyanate (AITC) of positive control or rhein) which was prepared to have a certain final concentration or DMSO was added. Then, a well in which an assay buffer containing ionomycin (having a final concentration of 10 μM after the addition) instead of the test samples was added was also prepared as a reference for fluorescence intensity.
(§4) The measurement was continued from the start of the measurement up to 120 seconds, and the TRPA1 activation ability of the test samples was calculated in accordance with the following formula.
(§5) Activation rate (%)=(Fmax[s]−F0)/(Fmax[i]−F0)×100 • Fmax[s]: The maximum value of the fluorescence intensity when the test sample or positive control was added • F0: The average value of the fluorescence intensity for 20 seconds after the start of the measurement (base line) • Fmax[i]: The maximum value of the fluorescence intensity when ionomycin was added
The TRPA1 activation ability of each test sample was measured in the same manner as in the above (2) except the test was conducted with A-967079 (1 μM), which is a TRPA1-specific antagonist, or without A-967079. In addition, intracellular Ca^2+ imaging assay was conducted in the same manner as in the above (2) except that a hTRPV1 stably expressing cell line, a hTRPM8 stably expressing cell line, or a Mock cell was used instead of the hTRPA1 stably expressing cell line. Note that capsaicin was used as positive control for the hTRPV1 stably expressing cell line, and icilin was used as positive control for the hTRPM8 stably expressing cell line.
A TRPA1 activation ability was measured in the same manner as in the above (2) by using, as a test sample, rhein or compounds described in the following Table 10, which had anthraquinone structures similar to rhein, at a concentration of 200 μM of the test sample.

[2] = Anorexia Improving Test 3: cumulative amounts of food ingested of mice, rhein with or without A-967079; format: in vivo; conditions: oral, rhein 100 μmol/kg body weight, A-967079 10 μmol/kg body weight
Description: Male ICR mice were housed in individual cages in which ALPHA-dri (Shepherd Specialty Papers) was laid, and were acclimatized and raised for at least one week or more while a powder feed (CE-2, CLEA Japan, Inc.) was given to the mice by using a powder feeder for mice (SN-950, Shinano Manufacturing Co., Ltd.). Then, for several days before the experiment, handling and oral administration training using a feeding needle (FG4202, Fuchigami Kikai Co., Ltd.) were conducted every day. To 9 week-old mice under ad libitum feeding conditions, a carrier solution (containing 2% of dimethyl sulfoxide and 98% of a 0.5% methyl cellulose solution in volume ratio) or a rhein solution (obtained by dissolving 8.53 mg of rhein in 1 mL of the carrier solution) was orally administered from 9:20 a.m. (10 mL/kg body weight). The dosage of rhein was 300 μmol/kg body weight in terms of molar concentration. Then, a feeder the mass of which had been measured in advance was set in the cage at 9:30 a.m. The masses of the feeder and the feed spilled in the cage 0.5, 1, 2, and 3 hours after the start of the feeding experiment were measured, and the ingested mass (g) at each time was measured (n=6). The ingested mass (g) of each mouse was measured in the same manner as in anorexia improving test 2 (the above item 5) except that 10 mL/kg body weight of a carrier solution, a rhein solution (100 μmol/kg body weight), an A-967079 solution (10 μmol/kg body weight), or a mixed solution of A-967079 and rhein (in 10 μmol/kg body weight and 100 μmol/kg body weight, respectively) was orally administered to the mouse. Results obtained by calculating the cumulative amounts of food ingested and conducting a multiple comparison (multiple t-test) by the Dunn-Bonferroni method are shown in Table 12.

Human TRPA1 (hTRPA1) [3] = molecular target: T1, Human TRPA1 (hTRPA1); experiment: TRPA1 Activation Test 1: intracellular Ca2+ imaging assay 1-1 to 1-3, hTRPA1 stably expressing cell line; format: cell-based; conditions: for TRPA1 activating action with TRPA1-specific antagonist (in words) / TRPA1 activation rate, With antagonist: A-967079 1 μM; for TRPA1 activating action (in words): hTRPA1 stably expressing cell line; for TRPA1 activation rate, With antagonist / TRPA1 activation rate, Without antagonist: Table 6
Description: as §1, §2
as §3, with “bottom plate (black),” for “bottom plate,”, “and a” for “and the”, “of the purified oxylipin or the R2 fraction (both were assumed to contain a compound having a molecular weight of 294) obtained in the above item 1” for “of rhein (produced by Tokyo Chemical Industry Co., Ltd.)”, “calcium ions” for “calcium ion”, “magnesium ions” for “magnesium ion”, “sample” for “sample (allyl isothiocyanate (AITC) of positive control or rhein)”
as §4
as §5, with “sample or the positive control” for “sample or positive control”
The TRPA1 activation ability was measured in the same manner as in the above (2) except that the R2 fraction or allyl isothiocyanate (AITC) was used as a test sample and the test was conducted with A-967079 (1 μM), which is a TRPA1-specific antagonist, or without A-967079. In addition, regarding the R2 fraction, the hTRPV1 stably expressing cell line or the hTRPM8 stably expressing cell line was used instead of the hTRPA1 stably expressing cell line to conduct the same test. Note that as positive controls, capsaicin was used for the hTRPV1 stably expressing cell line and icilin was used for the hTRPM8 stably expressing cell line.
The TRPA1 activation ability was measured in the same manner as in the above (2) except that each isolated compound or allyl isothiocyanate (AITC) was used as a test sample and the test was conducted with A-967079 (1 μM), which was a TRPA1-specific antagonist, or without A-967079.

## O=C1c2cccc(O)c2C(=O)c2cccc(O)c21 [Anthrarufin, reference compound]
Human TRPA1 (hTRPA1) [1]; test sample 200 μM
  TRPA1 activation rates: 0.587 ± 0.0172%

## Cc1cc(O)c2c(c1)C(=O)c1cccc(O)c1C2=O [Chrysophanol, reference compound]
Human TRPA1 (hTRPA1) [1]; test sample 200 μM
  TRPA1 activation rates: 3.27 ± 0.439%

## CCC(=N\O)/C(C)=C/c1ccc(F)cc1 [Compound A-967079, reference compound]
[2]; 0.5 hour after the administration
  Cumulative amounts of food ingested of mice: 0.026 ± 0.0093 g
[2]; 1 hour after the administration
  Cumulative amounts of food ingested of mice: 0.042 ± 0.015 g
[2]; 2 hours after the administration
  Cumulative amounts of food ingested of mice: 0.088 ± 0.027 g
[2]; 3 hours after the administration
  Cumulative amounts of food ingested of mice: 0.20 ± 0.066 g

## CC/C=C/CC(O)/C=C/C=C\CCCCCCCC(=O)O (stereo not drawn) [Compound R1-2]
Human TRPA1 (hTRPA1) [3]
  TRPA1 activating action with TRPA1-specific antagonist (in words): inhibited by the TRPA1-specific antagonist
  TRPA1 activating action (in words): exhibited the TRPA1 activating action
Human TRPA1 (hTRPA1) [3]; test sample 200 μM
  TRPA1 activation rate, With antagonist: 1.75 ± 0.443%
  TRPA1 activation rate, Without antagonist: 32.0 ± 1.40%
Human TRPA1 (hTRPA1) [3]; test sample 500 μM
  TRPA1 activation rate, With antagonist: 8.24 ± 1.13%
  TRPA1 activation rate, Without antagonist: 95.9 ± 1.79%

## CCC(O)/C=C/C=C\C/C=C\CCCCCCCC(=O)O (stereo not drawn) [Compound R2-2]
Human TRPA1 (hTRPA1) [3]
  TRPA1 activating action with TRPA1-specific antagonist (in words): inhibited by the TRPA1-specific antagonist
  TRPA1 activating action (in words): exhibited the TRPA1 activating action
Human TRPA1 (hTRPA1) [3]; test sample 200 μM
  TRPA1 activation rate, With antagonist: 0.71 ± 0.0743%
  TRPA1 activation rate, Without antagonist: 21.6 ± 5.63%
Human TRPA1 (hTRPA1) [3]; test sample 500 μM
  TRPA1 activation rate, With antagonist: 1.96 ± 0.548%
  TRPA1 activation rate, Without antagonist: 77.5 ± 0.988%

## CC/C=C\C/C=C\C=C\C(O)CCCCCCCC(=O)O (stereo not drawn) [Compound R3]
Human TRPA1 (hTRPA1) [3]
  TRPA1 activating action with TRPA1-specific antagonist (in words): inhibited by the TRPA1-specific antagonist
  TRPA1 activating action (in words): exhibited the TRPA1 activating action
Human TRPA1 (hTRPA1) [3]; test sample 200 μM
  TRPA1 activation rate, With antagonist: 0.58 ± 0.0564%
  TRPA1 activation rate, Without antagonist: 16.3 ± 0.812%
Human TRPA1 (hTRPA1) [3]; test sample 500 μM
  TRPA1 activation rate, With antagonist: 0.731 ± 0.237%
  TRPA1 activation rate, Without antagonist: 93.6 ± 1.92%

## O=C1c2cccc(O)c2C(=O)c2c(O)cccc21 [Dantron, reference compound]
Human TRPA1 (hTRPA1) [1]; test sample 200 μM
  TRPA1 activation rates: 4.72 ± 0.762%

## Cc1cc(O)c2c(c1)C(=O)c1cc(O)cc(O)c1C2=O [Emodin, emodin]
Human TRPA1 (hTRPA1) [1]; A-967079
  TRPA1 activating action with TRPA1-specific antagonist (in words): inhibited by A-967079
Human TRPA1 (hTRPA1) [1]
  Concentration dependence of TRPA1 activity (in words): exhibited TRPA1 activity in concentration dependent manner
  TRPA1 activating action (in words): exhibited TRPA1 activating actions
Human TRPA1 (hTRPA1) [1]; test sample 100 μM, A-967079
  TRPA1 activation rate, With antagonist: 0.881 ± 0.134 %
Human TRPA1 (hTRPA1) [1]; test sample 100 μM
  TRPA1 activation rate, Without antagonist: 49.4 ± 1.41%
Human TRPA1 (hTRPA1) [1]; test sample 200 μM, A-967079
  TRPA1 activation rate, With antagonist: 2.96 ± 0.246 %
Human TRPA1 (hTRPA1) [1]; test sample 200 μM
  TRPA1 activation rates: 43.1 ± 1.72%
  TRPA1 activation rate, Without antagonist: 64.8 ± 3.73%
Human TRPA1 (hTRPA1) [1]; test sample 400 μM, A-967079
  TRPA1 activation rate, With antagonist: 6.25 ± 1.70 %
Human TRPA1 (hTRPA1) [1]; test sample 400 μM
  TRPA1 activation rate, Without antagonist: 71.29 ± 1.08%

## O=C(O)c1cc(O)c2c(c1)[C@H]([C@H]1c3cc(C(=O)O)cc(O)c3C(=O)c3c(O[C@@H]4O[C@H](CO)[C@@H](O)[C@H](O)[C@H]4O)cccc31)c1cccc(O[C@@H]3O[C@H](CO)[C@@H](O)[C@H](O)[C@H]3O)c1C2=O [Sennoside A, reference compound]
Human TRPA1 (hTRPA1) [1]; test sample 200 μM
  TRPA1 activation rates: 3.33 ± 0.705%

## aloe-emodin
Human TRPA1 (hTRPA1) [1]
  Concentration dependence of TRPA1 activity (in words): exhibited TRPA1 activity in concentration dependent manner
  TRPA1 activating action (in words): exhibited TRPA1 activating actions
Human TRPA1 (hTRPA1) [1]; test sample 200 μM
  TRPA1 activation rates: 15.3 ± 0.743%

## physcion
Human TRPA1 (hTRPA1) [1]
  Concentration dependence of TRPA1 activity (in words): exhibited TRPA1 activity in concentration dependent manner
  TRPA1 activating action (in words): exhibited TRPA1 activating actions
Human TRPA1 (hTRPA1) [1]; test sample 200 μM
  TRPA1 activation rates: 24.3 ± 0.760%

Source: US20250009697A1, “COMPOSITION FOR INCREASING AMOUNT OF FOOD INGESTED AND/OR IMPROVING ANOREXIA, AND COMPOSITION FOR ACTIVATING TRANSIENT RECEPTOR POTENTIAL ANKYRIN 1” (HOUSE FOODS GROUP INC., priority 2021, published 2025)
